From ChEMBL document CHEMBL1159202, “A furanoid labdane diterpene from Potamogeton nodosus” (1998)

Key:
Format in all cases: functional
[1] = system: Bacillus cereus; experiment: Antimicrobial activity against Bacillus cereus by disk diffusion method
[2] = system: Bacillus subtilis; experiment: Antimicrobial activity against Bacillus subtilis by disk diffusion method
[3] = system: Shigella sonnei; experiment: Antimicrobial activity against Shigella sonnei by disk diffusion method
[4] = system: Shigella dysenteriae; experiment: Antimicrobial activity against Shigella shigae by disk diffusion method
[5] = system: Enterococcus faecalis; experiment: Antimicrobial activity against sStreptococcus faecalis by disk diffusion method
[6] = system: Shigella boydii; experiment: Antimicrobial activity against Shigella boydii by disk diffusion method
[7] = system: Staphylococcus aureus; experiment: Antimicrobial activity against Staphylococcus aureus by disk diffusion method

| Structure (SMILES) | inhibition zone (IZ) [1] [mm] | inhibition zone (IZ) [2] [mm] | inhibition zone (IZ) [3] [mm] | inhibition zone (IZ) [4] [mm] | inhibition zone (IZ) [5] [mm] | inhibition zone (IZ) [6] [mm] | inhibition zone (IZ) [7] [mm] |
| --- | --- | --- | --- | --- | --- | --- | --- |
| C[C@H]1c2cccc(O)c2C(=O)C2=C(O)[C@]3(O)C(=O)C(C(N)=O)=C(O)[C@@H](N(C)C)[C@@H]3[C@@H](O)[C@@H]21.O [DOXYCYCLINE] | 31 | 34 | 30 | 37 | 35 | 38 | 35 |
| C=C1CC[C@H]2[C@@]3(C)CCC[C@]2(C(=O)OC3)[C@H]1CC(=O)c1ccoc1 | 13 | 16 | 10 | 12 | 12 | 8 | 14 |
